ChEMBL document CHEMBL1144852, “Optimization of a dihydropyrrolopyrazole series of transforming growth factor-beta type I receptor kinase domain inhibitors: discovery of an orally bioavailable transforming growth factor-beta receptor type I inhibitor as antitumor agent” (J Med Chem, 2008)
One block for each compound: values may come before it.

Columns and labels:
[1] = target: TGF-beta receptor type-1 (Homo sapiens, UniProt P36897, T204D); test: Inhibition of TGFbeta type receptor 1 ALK5 (T204D) expressed in Sf9 cells
[2] = tested on: NIH3T3; test: Antiproliferative activity against mouse NIH3T3 cells by [3H]thymidine assay; type: functional, cell-based
[3] = Antiproliferative activity against mink Mv1Lu-p3TP-Lux cells by luciferase reporter assay; type: functional, cell-based, Neovison vison; details: Neogale vison
[4] = AUC in rat at 10 mg/kg, po; type: ADME, organism-based; design: dose 10 mg/kg, route oral; details: plasma
[5] = target: Glycogen synthase kinase-3 beta (Homo sapiens) (UniProt P49841); test: Inhibition of GSK3-beta at 20 uM
[6] = target: Rho-associated protein kinase 2 (Homo sapiens) (UniProt O75116); test: Inhibition of Rock2 at 20 uM
[7] = Inhibition of JNK1-alpha at 20 uM
[8] = target: Serine/threonine-protein kinase Sgk1 (Homo sapiens) (UniProt O00141); test: Inhibition of SGK at 20 uM
[9] = target: Dual specificity mitogen-activated protein kinase kinase 6 (Homo sapiens) (UniProt P52564); test: Inhibition of MKK6 at 20 uM
[10] = target: Mitogen-activated protein kinase 1 (Homo sapiens) (UniProt P28482); test: Inhibition of MAPK1 at 20 uM
[11] = Inhibition of CaMK2 at 20 uM
[12] = tested on: Mus musculus; test: Inhibition of TGFbeta type receptor 1 in orally dosed human Calu6 cells xenografted mouse by IVTI […] assay; type: functional, organism-based; details: Calu-6
[13] = target: Ribosomal protein S6 kinase alpha-5 (Homo sapiens) (UniProt O75582); test: Inhibition of MSK1 at 20 uM
[14] = target: Tyrosine-protein kinase Lck (Homo sapiens) (UniProt P06239); test: Inhibition of Lck at 20 uM
[15] = target: Vascular endothelial growth factor receptor 2 (Homo sapiens) (UniProt P35968); test: Inhibition of KDR at 20 uM
[16] = target: Cyclin-dependent kinase 1 (Homo sapiens) (UniProt P06493); test: Inhibition of CDK1 at 20 uM
[17] = tested on: Caco-2; test: Permeability from apical to basolateral side of human Caco-2 cell membrane; type: ADME, cell-based
[18] = target: Protein kinase C delta type (Homo sapiens) (UniProt Q05655); test: Inhibition of PKCdelta at 20 uM
[19] = Inhibition of PKA at 20 uM
[20] = target: Tyrosine-protein kinase Blk (Homo sapiens) (UniProt P51451); test: Inhibition of Blk at 20 uM
[21] = target: Protein kinase C alpha type (Homo sapiens) (UniProt P17252); test: Inhibition of PKCalpha at 20 uM
[22] = target: Dual specificity mitogen-activated protein kinase kinase 7 (Homo sapiens) (UniProt O14733); test: Inhibition of MKK7-beta at 20 uM
[23] = target: Mitogen-activated protein kinase 10 (Homo sapiens) (UniProt P53779); test: Inhibition of JNK3 at 20 uM
[24] = target: Dual specificity mitogen-activated protein kinase kinase 1 (Homo sapiens) (UniProt Q02750); test: Inhibition of Mek1 at 20 uM
[25] = target: Tyrosine-protein kinase ZAP-70 (Homo sapiens) (UniProt P43403); test: Inhibition of ZAP70 at 20 uM
[26] = target: Mitogen-activated protein kinase 11 (Homo sapiens) (UniProt Q15759); test: Inhibition of Sapk2-beta at 20 uM
[27] = target: Mitogen-activated protein kinase 9 (Homo sapiens) (UniProt P45984); test: Inhibition of JNK2-alpha-2 at 20 uM
[28] = target: Ribosomal protein S6 kinase beta-1 (Homo sapiens) (UniProt P23443); test: Inhibition of p70S6K at 20 uM
[29] = target: RAF proto-oncogene serine/threonine-protein kinase (Homo sapiens) (UniProt P04049); test: Inhibition of cRaf at 20 uM
[30] = target: Mitogen-activated protein kinase 12 (Homo sapiens) (UniProt P53778); test: Inhibition of Sapk3 at 20 uM
[31] = Inhibition of CK2 at 20 uM
[32] = target: Serine/threonine-protein kinase Chk1 (Homo sapiens) (UniProt O14757); test: Inhibition of Chk1 at 20 uM
[33] = target: Tyrosine-protein kinase Fyn (Homo sapiens) (UniProt P06241); test: Inhibition of Fyn at 20 uM
[34] = target: RAC-alpha serine/threonine-protein kinase (Homo sapiens) (UniProt P31749); test: Inhibition of PKBalpha at 20 uM
[35] = target: Cyclin-dependent kinase 2 (Homo sapiens) (UniProt P24941); test: Inhibition of CDK2 at 20 uM
[36] = target: Protein kinase C beta type (Homo sapiens) (UniProt P05771); test: Inhibition of PKC-beta-2 at 20 uM
[37] = target: Serine/threonine-protein kinase Chk2 (Homo sapiens) (UniProt O96017); test: Inhibition of Chk2 at 20 uM
[38] = target: Proto-oncogene tyrosine-protein kinase Src (Homo sapiens) (UniProt P12931); test: Inhibition of cSRC at 20 uM
[39] = target: Fibroblast growth factor receptor 3 (Homo sapiens) (UniProt P22607); test: Inhibition of FGFR3 at 20 uM
[40] = target: Dual specificity mitogen-activated protein kinase kinase 4 (Homo sapiens) (UniProt P45985); test: Inhibition of MKK4 at 20 uM
[41] = target: MAP kinase-activated protein kinase 5 (Homo sapiens) (UniProt Q8IW41); test: Inhibition of PRAK at 20 uM
[42] = target: Mitogen-activated protein kinase 13 (Homo sapiens) (UniProt O15264); test: Inhibition of Sapk4 at 20 uM
[43] = target: 5'-AMP-activated protein kinase subunit beta-1 (Homo sapiens) (UniProt Q9Y478); test: Inhibition of AMPK at 20 uM
[44] = target: Mitogen-activated protein kinase 14 (Homo sapiens) (UniProt Q16539); test: Inhibition of Sapk2-alpha at 20 uM
[45] = Metabolic stability in rat microsomes; type: ADME, Microsome; note: time not given here
[46] = tested on: Mus musculus; test: Inhibition of TGFbeta type receptor 1 in human Calu6 cells xenografted mouse at 50 mg/kg, po by single point IVTI assay; type: functional, Calu-6; design: scale not given: the % may be the effect or the level left
[47] = target: Serine/threonine-protein kinase N2 (Homo sapiens) (UniProt Q16513); test: Inhibition of PRK2 at 20 uM
[48] = target: MAP kinase-activated protein kinase 2 (Homo sapiens) (UniProt P49137); test: Inhibition of MAPKAPK2 at 20 uM
[49] = tested on: Liver microsomes; test: Metabolic stability in human liver microsomes; type: ADME, Microsome; note: time not given here

Chain of Vascular endothelial growth factor receptor 2 (Homo sapiens) (P35968 whole entry): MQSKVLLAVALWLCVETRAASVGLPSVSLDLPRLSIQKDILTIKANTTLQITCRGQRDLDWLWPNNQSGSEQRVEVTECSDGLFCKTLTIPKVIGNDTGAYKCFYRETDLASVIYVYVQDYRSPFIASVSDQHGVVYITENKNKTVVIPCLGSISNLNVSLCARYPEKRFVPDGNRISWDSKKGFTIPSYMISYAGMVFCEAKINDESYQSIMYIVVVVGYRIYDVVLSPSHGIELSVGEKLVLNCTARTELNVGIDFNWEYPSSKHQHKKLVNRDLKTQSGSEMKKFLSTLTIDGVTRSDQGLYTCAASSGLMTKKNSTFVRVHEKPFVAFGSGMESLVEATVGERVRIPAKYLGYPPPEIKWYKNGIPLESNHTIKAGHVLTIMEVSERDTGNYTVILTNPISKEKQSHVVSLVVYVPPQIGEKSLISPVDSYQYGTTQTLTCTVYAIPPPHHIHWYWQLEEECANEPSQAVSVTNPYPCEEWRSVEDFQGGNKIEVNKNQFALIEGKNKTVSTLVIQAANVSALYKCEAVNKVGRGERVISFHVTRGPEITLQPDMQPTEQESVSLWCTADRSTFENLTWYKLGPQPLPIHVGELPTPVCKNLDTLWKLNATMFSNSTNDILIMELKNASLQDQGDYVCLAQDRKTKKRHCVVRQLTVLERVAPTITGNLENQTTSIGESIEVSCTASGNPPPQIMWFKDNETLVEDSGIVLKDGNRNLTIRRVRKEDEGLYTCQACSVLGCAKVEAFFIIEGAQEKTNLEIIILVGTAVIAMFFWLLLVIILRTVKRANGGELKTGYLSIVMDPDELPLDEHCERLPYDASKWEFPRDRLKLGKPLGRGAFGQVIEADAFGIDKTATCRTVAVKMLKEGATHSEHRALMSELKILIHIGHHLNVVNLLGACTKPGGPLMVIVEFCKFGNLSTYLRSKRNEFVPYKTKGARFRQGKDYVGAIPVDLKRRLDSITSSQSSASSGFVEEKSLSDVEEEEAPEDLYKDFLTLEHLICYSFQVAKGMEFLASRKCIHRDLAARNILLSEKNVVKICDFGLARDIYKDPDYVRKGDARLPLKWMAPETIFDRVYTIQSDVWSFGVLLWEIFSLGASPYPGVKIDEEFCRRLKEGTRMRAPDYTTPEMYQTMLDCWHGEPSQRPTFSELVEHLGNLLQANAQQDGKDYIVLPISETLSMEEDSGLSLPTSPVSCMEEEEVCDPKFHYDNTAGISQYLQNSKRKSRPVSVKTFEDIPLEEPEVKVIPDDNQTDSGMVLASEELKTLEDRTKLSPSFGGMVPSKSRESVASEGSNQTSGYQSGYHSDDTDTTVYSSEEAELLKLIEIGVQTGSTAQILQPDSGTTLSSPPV
Chain of RAF proto-oncogene serine/threonine-protein kinase (Homo sapiens) (P04049 whole entry): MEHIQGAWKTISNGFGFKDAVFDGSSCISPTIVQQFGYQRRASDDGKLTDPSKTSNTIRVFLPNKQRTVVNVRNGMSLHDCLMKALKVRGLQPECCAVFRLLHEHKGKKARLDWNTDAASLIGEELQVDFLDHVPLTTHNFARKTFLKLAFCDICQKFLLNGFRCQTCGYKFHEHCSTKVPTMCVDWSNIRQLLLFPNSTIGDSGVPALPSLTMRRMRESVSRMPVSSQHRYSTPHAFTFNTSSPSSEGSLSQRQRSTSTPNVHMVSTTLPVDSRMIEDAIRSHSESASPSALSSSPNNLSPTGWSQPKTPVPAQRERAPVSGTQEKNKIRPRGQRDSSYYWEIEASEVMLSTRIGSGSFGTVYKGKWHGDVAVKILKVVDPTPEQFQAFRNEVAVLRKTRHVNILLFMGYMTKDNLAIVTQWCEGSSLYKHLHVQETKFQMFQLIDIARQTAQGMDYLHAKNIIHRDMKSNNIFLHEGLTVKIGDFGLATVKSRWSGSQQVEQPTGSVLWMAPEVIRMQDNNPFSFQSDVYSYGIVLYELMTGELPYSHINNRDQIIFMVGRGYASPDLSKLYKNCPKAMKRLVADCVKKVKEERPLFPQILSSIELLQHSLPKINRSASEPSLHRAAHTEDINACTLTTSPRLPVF
Chain of Mitogen-activated protein kinase 14 (Homo sapiens) (Q16539 whole entry): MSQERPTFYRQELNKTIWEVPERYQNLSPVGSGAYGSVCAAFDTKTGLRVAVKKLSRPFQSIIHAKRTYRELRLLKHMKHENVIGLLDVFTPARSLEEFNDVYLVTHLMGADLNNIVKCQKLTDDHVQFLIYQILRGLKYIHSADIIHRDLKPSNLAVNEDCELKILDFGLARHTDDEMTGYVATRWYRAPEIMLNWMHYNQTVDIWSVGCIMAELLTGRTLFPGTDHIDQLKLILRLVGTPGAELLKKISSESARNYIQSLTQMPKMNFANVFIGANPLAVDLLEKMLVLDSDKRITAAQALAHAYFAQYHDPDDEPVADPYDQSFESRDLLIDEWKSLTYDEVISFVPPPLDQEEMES
Chain of Mitogen-activated protein kinase 1 (Homo sapiens) (P28482 whole entry): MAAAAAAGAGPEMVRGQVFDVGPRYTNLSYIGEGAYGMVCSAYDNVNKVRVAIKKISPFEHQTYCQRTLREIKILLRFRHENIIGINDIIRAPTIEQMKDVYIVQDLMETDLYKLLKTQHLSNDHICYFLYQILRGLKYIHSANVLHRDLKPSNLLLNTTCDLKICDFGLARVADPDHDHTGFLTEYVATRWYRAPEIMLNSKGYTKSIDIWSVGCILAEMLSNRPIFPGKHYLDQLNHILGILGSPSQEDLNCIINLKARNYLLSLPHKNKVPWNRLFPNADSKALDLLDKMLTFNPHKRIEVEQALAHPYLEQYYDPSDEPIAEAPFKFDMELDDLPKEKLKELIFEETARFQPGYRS
Chain of Ribosomal protein S6 kinase alpha-5 (Homo sapiens) (O75582 whole entry, looked up): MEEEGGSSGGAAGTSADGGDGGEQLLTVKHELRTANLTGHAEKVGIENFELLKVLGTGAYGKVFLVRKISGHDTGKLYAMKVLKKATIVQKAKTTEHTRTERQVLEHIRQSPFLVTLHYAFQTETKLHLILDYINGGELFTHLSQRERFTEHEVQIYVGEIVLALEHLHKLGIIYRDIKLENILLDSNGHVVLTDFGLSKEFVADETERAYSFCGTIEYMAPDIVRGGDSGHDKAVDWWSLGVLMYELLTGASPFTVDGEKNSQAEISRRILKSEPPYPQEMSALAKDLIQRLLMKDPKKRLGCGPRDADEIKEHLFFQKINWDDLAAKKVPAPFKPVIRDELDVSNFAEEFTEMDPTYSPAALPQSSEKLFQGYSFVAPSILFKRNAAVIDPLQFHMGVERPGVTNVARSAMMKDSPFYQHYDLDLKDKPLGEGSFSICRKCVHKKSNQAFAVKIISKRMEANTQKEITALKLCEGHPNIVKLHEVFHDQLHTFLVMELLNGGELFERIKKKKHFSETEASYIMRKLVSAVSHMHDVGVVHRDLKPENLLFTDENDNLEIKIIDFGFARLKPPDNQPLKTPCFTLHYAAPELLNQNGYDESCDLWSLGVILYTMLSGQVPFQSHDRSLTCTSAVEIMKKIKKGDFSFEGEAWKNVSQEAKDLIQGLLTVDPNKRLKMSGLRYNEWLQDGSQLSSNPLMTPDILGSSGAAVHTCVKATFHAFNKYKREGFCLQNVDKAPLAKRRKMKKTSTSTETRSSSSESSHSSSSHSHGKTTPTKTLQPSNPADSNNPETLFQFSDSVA
Chain of Glycogen synthase kinase-3 beta (Homo sapiens) (P49841 whole entry, looked up): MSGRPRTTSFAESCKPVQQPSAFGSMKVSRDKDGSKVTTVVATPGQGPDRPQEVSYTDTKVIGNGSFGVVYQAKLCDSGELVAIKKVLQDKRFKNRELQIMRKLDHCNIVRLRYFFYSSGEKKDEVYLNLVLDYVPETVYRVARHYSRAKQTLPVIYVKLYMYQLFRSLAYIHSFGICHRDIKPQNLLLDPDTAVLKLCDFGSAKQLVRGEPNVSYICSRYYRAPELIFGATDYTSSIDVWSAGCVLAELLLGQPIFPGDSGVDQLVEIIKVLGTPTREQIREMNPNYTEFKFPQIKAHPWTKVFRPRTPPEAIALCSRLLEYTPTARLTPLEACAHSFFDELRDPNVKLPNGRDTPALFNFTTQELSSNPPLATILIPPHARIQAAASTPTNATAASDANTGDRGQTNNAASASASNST
Chain of Tyrosine-protein kinase Blk (Homo sapiens) (P51451 2-505 limits assumed): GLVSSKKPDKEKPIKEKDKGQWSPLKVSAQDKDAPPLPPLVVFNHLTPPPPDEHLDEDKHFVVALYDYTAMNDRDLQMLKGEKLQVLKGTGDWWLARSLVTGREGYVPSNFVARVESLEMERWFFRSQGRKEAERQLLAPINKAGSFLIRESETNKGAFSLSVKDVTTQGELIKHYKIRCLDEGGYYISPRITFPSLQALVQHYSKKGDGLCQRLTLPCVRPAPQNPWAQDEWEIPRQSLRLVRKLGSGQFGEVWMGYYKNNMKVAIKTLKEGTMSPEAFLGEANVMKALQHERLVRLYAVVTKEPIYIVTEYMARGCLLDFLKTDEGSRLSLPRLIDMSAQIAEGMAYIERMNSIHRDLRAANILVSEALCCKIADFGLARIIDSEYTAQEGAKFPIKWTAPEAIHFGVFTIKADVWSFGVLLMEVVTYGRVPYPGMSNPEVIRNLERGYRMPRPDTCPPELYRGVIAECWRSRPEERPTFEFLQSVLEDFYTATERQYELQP
Chain of Mitogen-activated protein kinase 10 (Homo sapiens) (P53779 whole entry): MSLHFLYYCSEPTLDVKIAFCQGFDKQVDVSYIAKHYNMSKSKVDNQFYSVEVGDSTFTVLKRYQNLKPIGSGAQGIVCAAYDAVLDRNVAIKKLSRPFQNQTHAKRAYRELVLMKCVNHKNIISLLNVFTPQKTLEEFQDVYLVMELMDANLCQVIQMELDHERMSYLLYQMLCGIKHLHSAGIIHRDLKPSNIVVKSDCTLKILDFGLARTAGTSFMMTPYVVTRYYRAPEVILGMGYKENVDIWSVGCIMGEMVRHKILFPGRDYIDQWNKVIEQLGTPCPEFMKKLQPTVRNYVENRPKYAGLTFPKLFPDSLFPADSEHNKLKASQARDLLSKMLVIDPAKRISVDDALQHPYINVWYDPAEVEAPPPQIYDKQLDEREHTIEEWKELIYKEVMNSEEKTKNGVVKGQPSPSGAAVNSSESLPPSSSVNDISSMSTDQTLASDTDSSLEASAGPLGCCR

- IC50 [1]: 1200 nM
Compound: N#Cc1ccc(Oc2ccc3c(-c4c(-c5ccccn5)nn5c4CCC5)ccnc3c2)cc1

- IC50 [1]: 1100 nM
Compound: CN(C)C(=O)c1ccc(Oc2ccc3c(-c4c(-c5ccccn5)nn5c4CCC5)ccnc3c2)cc1
- IC50 [2]: 5100 nM
- IC50 [3]: 15000 nM

- IC50 [1]: > 20000 nM
Compound: COc1cc(-c2c(-c3ccccn3)nn3c2CCC3)c2ccccc2n1

- AUC [4]: 398 ng·h/mL
Compound: CN(C)CC(=O)Nc1ccc2c(-c3c(-c4ccccn4)nn4c3CCC4)ccnc2c1

- IC50 [1]: 141 nM
Compound: Cc1cccc(-c2nn3c(c2-c2ccnc4ccc(OC(F)(F)F)cc24)CCC3)n1
- IC50 [2]: 254 nM
- IC50 [3]: 201 nM

- IC50 [1]: 160 nM
Compound: Oc1ccc2c(-c3c(-c4ccccn4)nn4c3CCC4)ccnc2c1
- IC50 [2]: 420 nM
- IC50 [3]: 200 nM

- IC50 [1]: 47 nM
Compound: CN(C)CCCCCOc1ccc2c(-c3c(-c4ccccn4)nn4c3CCC4)ccnc2c1
- IC50 [2]: 51 nM
- IC50 [3]: 24 nM

- EC50 [12]: 343 nM
- permeability [17]: 27%
- Stability [49]: 29%
- IC50 [1]: 85 nM
- Stability [45]: 57%
Compound: CCN(C)CCOc1ccc2c(-c3c(-c4ccccn4)nn4c3CCC4)ccnc2c1
- IC50 [2]: 72 nM
- IC50 [3]: 61 nM
- Activity [46]: 70%

- permeability [17]: 54%
- Stability [49]: 99%
- IC50 [1]: 33 nM
- Stability [45]: 99%
Compound: ClCCOc1ccc2c(-c3c(-c4ccccn4)nn4c3CCC4)ccnc2c1
- IC50 [2]: 97 nM
- IC50 [3]: 66 nM

- IC50 [1]: 4800 nM
Compound: O=C(O)c1ccc(Oc2ccc3c(-c4c(-c5ccccn5)nn5c4CCC5)ccnc3c2)cc1
- IC50 [2]: > 20000 nM
- IC50 [3]: > 20000 nM

- permeability [17]: 42%
- Stability [49]: 55%
- IC50 [1]: 130 nM
- Stability [45]: 97%
Compound: c1ccc(-c2nn3c(c2-c2ccnc4cc(OCC5CCCO5)ccc24)CCC3)nc1 (stereo unspecified)
- IC50 [2]: 250 nM
- IC50 [3]: 80 nM

- IC50 [1]: 1100 nM
Compound: NC(=O)c1ccc(Oc2ccc3c(-c4c(-c5ccccn5)nn5c4CCC5)ccnc3c2)cc1

- IC50 [1]: 19800 nM
Compound: Clc1cc(-c2c(-c3ccccn3)nn3c2CCC3)c2ccccc2n1
- IC50 [2]: > 20000 nM
- IC50 [3]: > 20000 nM

- IC50 [1]: > 20000 nM
Compound: CCSc1cc(-c2c(-c3ccccn3)nn3c2CCC3)c2ccccc2n1
- IC50 [3]: > 20000 nM

More lines, now with the values behind:

Compound: CN(C)Cc1ccc(Oc2ccc3c(-c4c(-c5ccccn5)nn5c4CCC5)ccnc3c2)cc1
- IC50 [1]: 750 nM

Compound: Cc1cccc(-c2nn3c(c2-c2ccnc4ccc(Br)cc24)CCC3)n1
- IC50 [2]: 338 nM
- IC50 [1]: 89 nM
- IC50 [3]: 55 nM

Compound: CN1CCN(C(=O)COc2ccc3c(-c4c(-c5ccccn5)nn5c4CCC5)ccnc3c2)CC1
- IC50 [2]: 730 nM
- IC50 [1]: 49 nM
- IC50 [3]: 260 nM

Compound: CN(C)CCOc1ccc2c(-c3c(-c4ccccn4)nn4c3CCC4)ccnc2c1
- inhibition [5]: < 50%
- inhibition [6]: < 50%
- inhibition [7]: < 50%
- inhibition [8]: < 50%
- inhibition [9]: 62%
- inhibition [10]: 30%
- inhibition [11]: < 50%
- EC50 [12]: 310 nM
- inhibition [13]: < 50%
- inhibition [14]: 81%
- inhibition [15]: < 50%
- inhibition [16]: < 50%
- permeability [17]: 28%
- inhibition [18]: < 50%
- inhibition [19]: < 50%
- inhibition [20]: < 50%
- inhibition [21]: < 50%
- inhibition [22]: < 50%
- inhibition [23]: 51%
- inhibition [24]: < 50%
- inhibition [25]: < 50%
- inhibition [26]: 29%
- inhibition [27]: < 50%
- inhibition [28]: < 50%
- inhibition [29]: < 50%
- inhibition [30]: < 50%
- inhibition [31]: < 50%
- inhibition [32]: < 50%
- inhibition [33]: 18%
- inhibition [34]: < 50%
- inhibition [35]: < 50%
- inhibition [36]: < 50%
- IC50 [2]: 98 nM
- inhibition [37]: < 50%
- inhibition [38]: < 50%
- inhibition [39]: < 50%
- inhibition [40]: < 50%
- inhibition [41]: < 50%
- inhibition [42]: < 50%
- inhibition [43]: < 50%
- inhibition [44]: 87%
- Stability [45]: 60%
- Activity [46]: 59%
- inhibition [47]: < 50%
- inhibition [48]: < 50%

Compound: CN1CCCC1CCCOc1ccc2c(-c3c(-c4ccccn4)nn4c3CCC4)ccnc2c1 (stereo unspecified)
- EC50 [12]: 377 nM
- IC50 [2]: 20 nM
- IC50 [1]: 72 nM
- IC50 [3]: 17 nM
- Activity [46]: 75%

Compound: COc1cc(OC)c2nccc(-c3c(-c4cccc(C)n4)nn4c3CCC4)c2c1
- IC50 [2]: > 20000 nM
- IC50 [1]: 3810 nM
- IC50 [3]: 7200 nM

Compound: CN1CCN(CCCOc2ccc3c(-c4c(-c5ccccn5)nn5c4CCC5)ccnc3c2)CC1
- EC50 [12]: 1100 nM
- permeability [17]: 13%
- Stability [49]: 17%
- IC50 [2]: 92 nM
- IC50 [1]: 74 nM
- IC50 [3]: 44 nM
- Stability [45]: 46%
- Activity [46]: 70%

Compound: CN1CCN(CCOc2ccc3c(-c4c(-c5ccccn5)nn5c4CCC5)ccnc3c2)CC1
- EC50 [12]: 919 nM
- IC50 [2]: 54 nM
- IC50 [1]: 100 nM
- IC50 [3]: 38 nM
- Activity [46]: 73%

Compound: COC(=O)c1ccc2nccc(-c3c(-c4cccc(C)n4)nn4c3CCC4)c2c1
- IC50 [1]: 526 nM
- IC50 [3]: 403 nM

Compound: c1ccc(-c2n[nH]cc2-c2ccnc3ccccc23)nc1
- permeability [17]: 76%
- Stability [49]: 22%
- IC50 [2]: 81 nM
- Stability [45]: 98%

Compound: c1ccc(-c2nn3c(c2-c2cc(N4CCCC4)nc4ccccc24)CCC3)nc1
- IC50 [1]: > 20000 nM
- IC50 [3]: > 20000 nM

Compound: Cc1cccc(-c2nn3c(c2-c2ccnc4ccc(C(=O)NCCN(C)C)cc24)CCC3)n1
- IC50 [2]: 2270 nM
- IC50 [1]: 193 nM
- IC50 [3]: 468 nM

Compound: Cc1cccc(-c2nn3c(c2-c2ccnc4c(F)cccc24)CCC3)n1
- IC50 [2]: 1030 nM
- IC50 [1]: 928 nM
- IC50 [3]: 951 nM
